How the values were obtained:
[1] = test system: diaphysis and metaphysis tissues of rat femur; assay: Calcium level in bone tissues in a bone tissue culture system; conditions: for Change of calcium levels in bone tissues (in words) / Calcium level in bone tissues, diaphysis part / Calcium level in bone tissues, metaphysis part / Change of calcium levels in bone tissues compared to the control group (in words): 48 h culture, β-cryptoxanthin 10^−9 M; for Calcium level in bone tissues, diaphysis part / Calcium level in bone tissues, metaphysis part: mean ± SD, 5 rats; for Change of calcium level in bone tissues (in words): higher concentration of 10^−5 M; for Change of calcium levels in bone tissues compared to the control group (in words): both diaphysis and metaphysis
Method: Rats (Wistar male rats; 4 weeks old, body weight 85-90 g; purchased from Japan SLC Ltd., and fed with solid Oriental yeast (MF)) were sacrificed under mild ether anesthesia. Muscle tissues around femur were removed completely, divided into diaphysis (cortical bone) and metaphysis (cancellous bone) tissues of femur, and then the bone marrow cells were washed and removed in a cold 0.25 M sucrose solution. The bone tissue pieces were cultured in a Dulbecco's modified Eagle's culture medium (serum-free, containing 50 units/ml penicillin and 50 μg/ml spretomycin, supplemented with 45 mg/ml glucose), in an CO2 incubator aseptically for 48 hours at 37° C. […] Bone tissues were put into a culture dish (with a diameter of 35 mm, made of plastic) added with 2.0 ml of the above mentioned culture solution, and cultured. After being cultured, bone tissues were washed well in a cold 0.25 M sucrose solution, dried at 100° C. for 5 hours, and weighed. Dried bone tissues were put into a test tube (15 ml), to which 2.0 ml of concentrated nitric acid was added, and the resultant was heated and degraded at 100° C. for 16 hours. After degradation, solution amount was measured. A specific amount thereof was diluted with purified distilled water, and calcium was determined by colorimetry (kit for measuring calcium, Wako Pure Chemical Industries). Calcium levels in bone tissues are indicated as mg per 1 g of dried weight of cultured bone tissues. In the above experiment, bone tissues obtained from one rat were put in one culture dish, and 5 culture dishes were used for 5 rats. 5 dishes were used for each of the control, β-cryptoxanthin alone group, zinc alone group, and the β-cryptoxanthin and zinc-combined group. […] A critical value of less than 5% was determined as having a significant difference.
In order to investigate the effect on calcium levels in bone tissues when β-cryptoxanthin and zinc, or genistein and menaquinone-7 are supplied in the bone tissue culture system, femur diaphysis and metaphysis tissues were cultured for 48 hours in a culture solution, in the same manner as in Example 1, and the calcium level in bone tissues was measured, compared and evaluated.

[2] = test system: femur diaphysis and metaphysis tissues; assay: DNA level in bone tissues by oral administration; assay type: in vivo, rat; conditions: rats, β-cryptoxanthin 5 μg/100 g body weight, zinc 0.1 mg/100 g body weight; for Change of DNA level in diaphysis (in words) / Change of DNA level in metaphysis tissues (in words): oral 7 days; for DNA level in bone tissues, diaphysis part / DNA level in bone tissues, metaphysis part: oral once a day for 7 days
Method: (§1) DNA level was determined as an index of cell count in bone tissues. […] After osmosis at 4° C. for 24 hours, the liquid mixture was centrifuged. The supernatant was taken as a sample and determined by a method of Ceriotti et al. (J. Biol. Chem., 241; 34-77, 1951). Namely, 1 ml of concentrated hydrochloric acid and 1 ml of 0.04% indole solution were added to 2 ml of the sample and then the resultant mixture was heated to 100° C. in boiling water. After quenching followed by an extraction with 4 ml of chloroform, the chloroform layer was taken to determine bone DNA level with a spectrophotometer (490 nm).
(§2) 24 hours after the final administration, femur was extracted, and the change in calcium levels in diaphysis and metaphysis tissues was examined with the method of Example 1.
The change of DNA level in diaphysis and metaphysis tissues which were extracted in the same manner as in Example 5 was examined with the method of Example 4.

[3] = test system: diaphysis and metaphysis tissues of rat femur; assay: DNA level in bone tissues in a bone tissue culture system; assay type: cell-based; conditions: 48 h culture, β-cryptoxanthin 10^−9 M, zinc 10^−6 M; for DNA level in bone tissues, diaphysis part / DNA level in bone tissues, metaphysis part: mean ± SD, 5 rats; for Change of DNA level in bone tissues compared to the control group (in words): diaphysis and metaphysis
Method: (§3) After degradation, solution amount was measured.
as §1

[4] = test system: alkaline phosphatase in bone tissues (femur diaphysis and metaphysis); assay: Alkaline phosphatase activity in bone tissues by oral administration; assay type: in vivo, rat; conditions: rats, β-cryptoxanthin 5 μg/100 g body weight, zinc 0.1 mg/100 g body weight; for Change of alkaline phosphatase activity in diaphysis and metaphysis tissues (in words): oral 7 days; for Alkaline phosphatase activity in bone tissues, diaphysis part / Alkaline phosphatase activity in bone tissues, metaphysis part: oral once a day for 7 days
Method: (§4) The expression level of alkaline phosphatase, which is the most important enzyme for promoting bone calcification, was examined. […] The resultant liquid was centrifuged. The supernatant, as an enzyme solution, was determined by a method of Walter and Schutt (in Method of Enzymatic Analysis, Vol. 1-2, p. 856, Academic Press, New York, 1965). Namely, this method was carried out as follows: p-nitrophenylphosphoric acid was used as a substrate; 0.05 ml of the enzyme solution was added to 2 ml of diethanolamine buffer (pH 9.8). After the incubation at 37° C. for 30 minutes, 10 ml of 0.05 N NaOH was added to the mixture. The absorbance (405 nm) was determined with a spectrophotometer to examine bone alkaline phosphatase activity of a therapeutic agent for bones and of a compound known to be effective for bones.
as §2
The change of alkaline phosphatase activity in diaphysis and metaphysis tissues which were extracted in the same manner as in Example 5 was examined with the method of Example 3.

bone protein synthesis = conditions: non-patent document 4; cited from earlier work
[5] = test system: femur diaphysis and metaphysis tissues; assay: Calcium level in bone tissues by oral administration; assay type: in vivo, rat; conditions: rats, β-cryptoxanthin 5 μg/100 g body weight, zinc 0.1 mg/100 g body weight; for Change of calcium level in diaphysis (in words) / Change of calcium level in metaphysis (in words): oral 7 days; for Calcium level in bone tissues, diaphysis part / Calcium level in bone tissues, metaphysis part: oral once a day for 7 days, femur 24 h after final administration
Method: as §3, §2

[6] = test system: alkaline phosphatase in bone tissues (femur diaphysis and metaphysis); assay: Alkaline phosphatase activity in bone tissues in a bone tissue culture system; assay type: cell-based, rat; conditions: 48 h culture, β-cryptoxanthin 10^−9 M, zinc 10^−6 M; for Alkaline phosphatase activity in bone tissues, diaphysis part / Alkaline phosphatase activity in bone tissues, metaphysis part: mean ± SD, 5 rats; for Change of alkaline phosphatase activity in bone tissues compared to the control group (in words): diaphysis and metaphysis
Method: as §3
as §4, with “mixture.” for “mixture. The absorbance (405 nm) was determined with a spectrophotometer to examine bone alkaline phosphatase activity of a therapeutic agent for bones and of a compound known to be effective for bones.”

[7] = test system: diaphysis and metaphysis tissues of a femur; conditions: cited from earlier work
[8] = Example 2, zinc, genistein, menaquinone-7 each 10^−6 M

Structure (SMILES) | Change of calcium levels in bone tissues (in words) [1, 8] | Calcium level in bone tissues, diaphysis part [1, 8] [mg/g bone dry weight] | Calcium level in bone tissues, metaphysis part [1, 8] [mg/g bone dry weight] | Change of calcium level in bone tissues (in words) [1] | Change of DNA level in diaphysis (in words) [2] | Change of DNA level in metaphysis tissues (in words) [2] | DNA level in bone tissues, diaphysis part [2] [mg/g bone wet weight] | DNA level in bone tissues, metaphysis part [2] [mg/g bone wet weight] | Calcium level in bone tissues, diaphysis part ([1]; Example 1, zinc 10^−6 M) [mg/g bone dry weight] | Calcium level in bone tissues, metaphysis part ([1]; Example 1, zinc 10^−6 M) [mg/g bone dry weight] | Change of calcium levels in bone tissues compared to the control group (in words) ([1]; Example 1, zinc 10^−6 M) | DNA level in bone tissues, diaphysis part [3] [mg/g bone wet weight] | DNA level in bone tissues, metaphysis part [3] [mg/g bone wet weight] | Change of DNA level in bone tissues compared to the control group (in words) [3] | Change of alkaline phosphatase activity in diaphysis and metaphysis tissues (in words) [4] | Alkaline phosphatase activity in bone tissues, diaphysis part [4] [μmol/min/mg protein] | Alkaline phosphatase activity in bone tissues, metaphysis part [4] [μmol/min/mg protein] | Change of calcium level in diaphysis (in words) [5] | Change of calcium level in metaphysis (in words) [5] | Calcium level in bone tissues, diaphysis part [5] [mg/g dry mass] | further results
O=c1c(-c2ccc(O)cc2)coc2cc(O)cc(O)c12 [genistein, reference compound] | did not increase significantly | 211.0 ± 7.93 | 189.3 ± 6.40 | increasing significantly | – | – | – | – | – | – | – | – | – | – | – | – | – | – | – | – | –
CC(C)=CCC/C(C)=C/CC/C(C)=C/CC/C(C)=C/CC/C(C)=C/CC/C(C)=C/CC/C(C)=C/CC1=C(C)C(=O)c2ccccc2C1=O [menaquinone-7, reference compound] | did not increase significantly | 219.8 ± 4.20 | 184.9 ± 2.70 | increasing significantly | – | – | – | – | – | – | – | – | – | – | – | – | – | – | – | – | –
O=S(=O)([O-])[O-].[Zn+2] [zinc, zinc sulfate] | did not increase significantly | 224.3 ± 2.90 | 190.2 ± 2.53 | – | did not induce a significant change | did not induce a significant change | 1.805 ± 0.154 | 3.278 ± 0.103 | 215.5 ± 2.01 | 185.6 ± 1.56 | did not change significantly | 1.471 ± 0.052 | 3.025 ± 0.271 | did not change significantly | did not induce a significant change | 1.725 ± 0.038 | 1.170 ± 0.033 | did not induce a significant change | did not induce a significant change | 227.9 ± 4.3 | Concentration at which synthesis of bone protein is promoted (bone protein synthesis): ≥ 10^−4 M; Calcium level in bone tissues, metaphysis part [5]: 178.6 ± 4.0 mg/g dry mass; Alkaline phosphatase activity in bone tissues, diaphysis part [6]: 1.019 ± 0.061 μmol/min/mg protein; Alkaline phosphatase activity in bone tissues, metaphysis part [6]: 1.190 ± 0.079 μmol/min/mg protein; Change of alkaline phosphatase activity in bone tissues compared to the control group (in words) [6]: did not change significantly
CC1=C(/C=C/C(C)=C/C=C/C(C)=C/C=C/C=C(C)/C=C/C=C(C)/C=C/C2=C(C)C[C@@H](O)CC2(C)C)C(C)(C)CCC1 [β-cryptoxanthin] | did not increase significantly | 221.5 ± 3.45 | 189.5 ± 3.44 | – | did not induce a significant change | significant increase | 1.980 ± 0.251 | 4.102 ± 0.055 | 221.5 ± 3.95 | 189.5 ± 2.39 | did not change significantly | 1.358 ± 0.089 | 3.141 ± 0.078 | did not change significantly | did not induce a significant change | 1.703 ± 0.056 | 1.159 ± 0.048 | did not induce a significant change | increased significantly | 233.6 ± 6.8 | Effective concentration for promoting osteogenesis and increasing bone calcium level ([7]; 48-hour culture system of a bone tissue culture system, earlier report of the inventors): 10^−8-10^−6 M; Concentration at which osteogenesis is promoted and bone calcium increased ([7]; 48 h culture in a bone tissue culture system, patent document 10, non-patent document 2): 10^−1 to 10^−6; Calcium level, bone calcification accelerating enzyme and DNA level in bone tissues (in words) ([7]; femur diaphysis and metaphysis tissues cultured in medium containing β-cryptoxanthin, earlier report of the inventors): significant increase; Calcium level in bone tissues, metaphysis part [5]: 190.1 ± 3.4 mg/g dry mass; Alkaline phosphatase activity in bone tissues, diaphysis part [6]: 1.010 ± 0.078 μmol/min/mg protein; Alkaline phosphatase activity in bone tissues, metaphysis part [6]: 1.122 ± 0.078 μmol/min/mg protein; Change of alkaline phosphatase activity in bone tissues compared to the control group (in words) [6]: did not change significantly
